The values below come from US10434085B2, “Non-aromatic difluoro analogues of resorcylic acid lactones” (The University of North Carolina at Greensboro, priority 2015, dated 2019).

Where only a bound is given, the exact number is not on record here.

TaK1-TaB1 (TAK-1 enzyme), sequence (O43318 other isoform, or with tags, fused parts or gaps): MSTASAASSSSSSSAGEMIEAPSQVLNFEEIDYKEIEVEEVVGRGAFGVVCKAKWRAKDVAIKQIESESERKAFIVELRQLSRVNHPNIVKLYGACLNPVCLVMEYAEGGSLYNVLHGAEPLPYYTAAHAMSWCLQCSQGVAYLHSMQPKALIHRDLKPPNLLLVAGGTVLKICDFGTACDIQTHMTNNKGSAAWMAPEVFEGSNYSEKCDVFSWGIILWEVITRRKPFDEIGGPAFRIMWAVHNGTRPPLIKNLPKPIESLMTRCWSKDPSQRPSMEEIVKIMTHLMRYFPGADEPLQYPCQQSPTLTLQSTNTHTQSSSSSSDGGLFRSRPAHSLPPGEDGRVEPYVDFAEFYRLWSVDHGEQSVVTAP

In the first series the target is TaK1-TaB1 (TAK-1 enzyme) (Homo sapiens (Human), UniProt O43318). In words: TaK1-TaB1 inhibitor assay (IC50 of RAL analogues against TAK-1 enzyme). Format: biochemical. Particulars: Table 1, TAK-1 enzyme. From the text:
IV. TaK1-TaB1 (Transforming Growth Factor-β Activated Linase-1/TAK-1 Binding Protein 1) Inhibitor Assays
As usually defined, the IC50 is the concentration at which inhibition is half-maximal. `C/C=C\C=C/C(=O)[C@@H](O)[C@@H](O)C/C=C/c1cc(OC)cc(OC)c1C(=O)OC` [Compound 4, Methyl 2-((1E,4S,5S,7Z,9Z)-4,5-dihydroxy-6-oxoundeca-1,7,9-trien-1-yl)-4,6-dimethoxybenzoate] registered an IC50 above 30 µM.
As to `COc1cc2c(c(O)c1Br)C(=O)O[C@@H](C)C/C=C\C(=O)[C@@H](O)[C@@H](O)C/C=C/2` [Compound 6, (3S,5Z,8S,9S,11E)-15-Bromo-8,9,16-trihydroxy-14-methoxy-3-methyl-3,4,9,10-tetrahydro-1H-benzo[c][1]oxacyclotetradecine-1,7(8H)-dione], the IC50 turned out to be 2.6 µM.
On the same count and under the same terms, next, `COc1cc(O)c2c(c1Br)/C=C/C[C@H](O)[C@H](O)C(=O)/C=C\C[C@H](C)OC2=O` [Compound 7, (3S,5Z,8S,9S,11E)-13-Bromo-8,9,16-trihydroxy-14-methoxy-3-methyl-3,4,9,10-tetrahydro-1H-benzo[c][1]oxacyclotetradecine-1,7(8H)-dione]: 0.36 µM; `COc1cc(O)c2c(c1)/C=C/C[C@@H]1OC(CC(=O)[C@H]1O)C[C@H](C)OC2=O` [Compound 9, (1^2S,1^3S,8S,E)-1^3,5^3-Dihydroxy-5^5-methoxy-8-methyl-1^3,1^4,1^5,1^6-tetrahydro-1^2H-7-oxa-1(2,6)-pyrana-5(1,2) benzenacyclononaphan-3-ene-1^4,6-dione]: above 30 µM; `COc1cc(O)c2c(c1)/C=C/C[C@H](O)[C@H](O)C(=O)CCC[C@H](C)OC2=O` [LL-Z164-1, reference compound]: 2.6 µM.
The same measure, in the same setting: next, `COc1cc(O)c2c(c1)[C@H]1O[C@@H]1C[C@H](O)[C@H](O)C(=O)CCC[C@H](C)OC2=O` [dihydrohypothemycin, reference compound]: above 30 µM.
Take `COc1cc(O)c2c(c1)/C=C/C[C@H](O)[C@H](O)[C@@H](O)/C=C/C[C@H](C)OC2=O` [zeaenol, reference compound]: the half-inhibitory concentration (IC50) came out at 10 µM.

Staying with this series, now noted: among synthesized analogues.
With `COC1=CC(=O)C2=C(/C=C/C[C@H](O)[C@H](O)C(=O)/C=C\C[C@H](C)OC2=O)C1(F)F` [Compound 5, (3S,5Z,8S,9S,11E)-13,13-Difluoro-8,9-dihydroxy-14-methoxy-3-methyl-3,4,9,10-tetrahydro-1H benzo[c][1]oxacyclotetradecine-1,7,16(8H,13H)-trione], the “activity in TAK-1 assay” value is recorded as “relatively active”.

Still in this series, the particulars now being: restated in Table 2 beside docking scores.
As to `C/C=C\C=C/C(=O)[C@@H](O)[C@@H](O)C/C=C/c1cc(OC)cc(OC)c1C(=O)OC` [Compound 4, Methyl 2-((1E,4S,5S,7Z,9Z)-4,5-dihydroxy-6-oxoundeca-1,7,9-trien-1-yl)-4,6-dimethoxybenzoate], the IC50 is above 30 µM.
On the same count and under the same terms, next, `COc1c(Br)c(O)c2c(c1Br)/C=C/C[C@H](O)[C@H](O)C(=O)/C=C\C[C@H](C)OC2=O` [Compound 8, (3S,5Z,8S,9S,11E)-13,15-Dibromo-8,9,16-trihydroxy-14methoxy-3-methyl-3,4,9,10-tetrahydro-1H-benzo[c][1]oxacyclotetradecine-1,7(8H)-dione]: 8.9 µM; `COc1cc(O)c2c(c1)/C=C/C[C@@H]1OC(C)(C)O[C@@H]1C(=O)/C=C\C[C@H](C)OC2=O` [Compound 10, (3aS,5Z,8S,15E,17aS)-11-Hydroxy-13-methoxy-2,2,8-trimethyl-7,8,17,17a-tetrahydro-4H-benzo[c][1,3]dioxolo[4,5-h][1]oxacyclotetradecine-4,10(3aH)-dione]: 0.38 µM; `COc1cc(O)cc2c1C(=O)O[C@@H](C)CCCCC/C=C/C(=O)C2` [Greensporone C, reference compound]: above 30 µM.

System in a further series: not given
Experiment: not given
The conditions noted are these: cited from earlier work.
As for `COc1cc(O)c2c(c1)/C=C/C[C@H](O)[C@H](O)C(=O)/C=C\C[C@H](C)OC2=O` [(5Z)-7-oxozeaenol], the stability in plasma result is “instability in plasma”.
